Experimental data reported in patent US20080312336A1, “Preventive and/or Therapeutic Agent for Diabetic Vascular Disorder and Respiratory Disorder” (priority 2005, published 2008).
Blank lines part the entries; values can stand above or below the molecule they belong to.

Legend:
[1] = tested on: tracheal smooth muscles from the STZ-induced diabetic rat model; experiment: Carbachol-induced contraction of isolated tracheal smooth muscle from STZ-induced diabetic rats after four weeks of dosing; format: in vivo, SD rats; conditions: for effective dose for inducing 50% muscle contraction (ED50): ED50 of carbachol; for effective dose for inducing 50% muscle contraction (ED50) / maximum muscle contractile force (Emax): mean±SD, n=6; for maximum muscle contractile force (Emax): carbachol
Procedure: Eight-week-old male SD rats were divided into four groups, three of which were intraperitoneally administered with 50 mg/kg of streptozotocin (hereafter, also referred to as STZ) to induce diabetes. Of this diabetic model, two groups were used as the test substance-administered groups, and were intraperitoneally administered with 2 mg/kg or 8 mg/kg of the compound, 3-(15-hydroxypentadecyl)-2,4,4-trimethyl-2-cyclohexen-1-one (hereunder, referred to as “compound 24”) synthesized in Preparation Example 24, once daily for four weeks continuously. The diabetic model which was not administered with “compound 24” was used as the control group, and rats administered with neither STZ nor “compound 24” were used as the non-treated group.
After four weeks from the start of administration, tracheae were isolated to prepare specimens (mucosal epithelium (+) specimens). The mucosal epithelia were further removed from these specimens to form mucosal epithelium (−) specimens. These specimens were suspended in an organ bath, and the contractile response to cumulative administration of carbachol (CAS Registry No.: 51-83-2) was observed. The muscle contractile force was measured with various cumulative concentrations of carbachol within the range of 10^−8.0 to 10^−4.5 M, to obtain the maximum muscle contractile force (Emax (g/mg tissue)) and the effective dose for inducing 50% muscle contraction (ED50 (M)).

[2] = tested on: vascular smooth muscles from the STZ-induced diabetic rat model; experiment: U-46619-induced contraction of isolated thoracic aorta rings from STZ-induced diabetic rats after four weeks of dosing; format: in vivo, SD rats; set-up: effective dose for inducing 50% muscle contraction (ED50): unit not given here; conditions: for effective dose for inducing 50% muscle contraction (ED50): ED50 of U-46619
Procedure: Eight-week-old male SD rats were divided into four groups, three of which were intraperitoneally administered with 50 mg/kg of streptozotocin (hereafter, also referred to as STZ) to induce diabetes. Of this diabetic model, two groups were used as the test substance-administered groups, and were intraperitoneally administered with 2 mg/kg or 8 mg/kg of “compound 24” synthesized in Preparation Example […] once daily for four weeks continuously. The diabetic model which was not administered with “compound 24” was used as the control group, and rats which were administered with neither STZ nor “compound 24” were used as the non-treated group.
After four weeks from the start of administration, thoracic aorta were isolated to form ring specimens (endothelium (+) specimens) of about 2 mm in length. The vascular endothelia were further removed from these specimens to form endothelium (−) specimens. These specimens were suspended in an organ bath, and the contractile response to cumulative administration of 9,11-dideoxy-9α,11α-methanoepoxy-prosta-5Z,13E-dien-1-oic acid (CAS Registry No.: 56985-40-1, hereafter also referred to as U-46619), which is a thromboxane A2 derivative, was observed. The muscle contractile force was measured with various cumulative concentrations of U-46619 within the range of 10^−9.0 to 10^−6.5 M, to obtain the maximum muscle contractile force (Emax (g/mg tissue)) and the effective dose for inducing 50% muscle contraction (ED50 (M)).

rat isolated trachea = conditions: streptozotocin-induced diabetic rats and normal rats; cited from earlier work
[3] = tested on: tracheal muscles isolated from streptozotocin-induced diabetic rats; conditions: cited from earlier work
[4] = tested on: tracheal specimens contracted with carbachol; conditions: cited from earlier work; for relaxation of specimens contracted with carbachol: carbachol 10^−6 mol/l; for response of diabetic rat specimens compared with control animals: specimens six weeks after 65 mg/kg i.v. streptozotocin
[5] = mucosal epithelium (+) specimens, 2 mg/kg i.p. once daily for four weeks
[6] = mucosal epithelium (+) specimens, 8 mg/kg i.p. once daily for four weeks
[7] = mucosal epithelium (−) specimens, 2 mg/kg i.p. once daily for four weeks
[8] = mucosal epithelium (−) specimens, 8 mg/kg i.p. once daily for four weeks

Structure (SMILES): CC1=C(CCCCCCCCCCCCCCCO)C(C)(C)CCC1=O [Compound 24, 3-(15-hydroxypentadecyl)-2,4,4-trimethyl-2-cyclohexen-1-one]
- effect on ED50 decrease of carbachol-induced tracheal smooth muscle contraction ([1]; 2 and 8 mg/kg, vs. control group): inhibited the ED50 decrease in a dose-dependent manner
- effective dose for inducing 50% muscle contraction (ED50) [1, 5]: 12.2 ± 2.3 ×10^−8 M
- effective dose for inducing 50% muscle contraction (ED50) [1, 6]: 17.2 ± 5.3 ×10^−8 M
- effective dose for inducing 50% muscle contraction (ED50) [1, 7]: 11.4 ± 3.1 ×10^−8 M
- effective dose for inducing 50% muscle contraction (ED50) [1, 8]: 13.3 ± 4.2 ×10^−8 M
- overall effect on tracheal smooth muscle contraction ([1]; STZ-induced diabetic rats): tracheal smooth muscle contraction-improving tendency
- effect on Emax increase of carbachol-induced tracheal smooth muscle contraction ([1]; both mucosal epithelium (+) and (−) specimens, 2 and 8 mg/kg, vs. control group): tended to suppress the Emax increase concentration-dependently
- maximum muscle contractile force (Emax) [1, 5]: 0.303 ± 0.047 g/mg tissue
- maximum muscle contractile force (Emax) [1, 6]: 0.292 ± 0.029 g/mg tissue
- maximum muscle contractile force (Emax) [1, 7]: 0.307 ± 0.036 g/mg tissue
- maximum muscle contractile force (Emax) [1, 8]: 0.242 ± 0.019 g/mg tissue
- effect on Emax increase, endothelium (−) specimens ([2]; 2 mg/kg or 8 mg/kg, compared to the control group): significant inhibition of the Emax increase
- effect on Emax increase, endothelium (+) specimens ([2]; 8 mg/kg, compared to the control group): significant inhibition of the Emax increase
- effective dose for inducing 50% muscle contraction (ED50) ([2]; endothelium (+) specimens, 2 mg/kg i.p. once daily for four weeks, mean±SD, n=6): 8.077 ± 0.037 ×10^−9
- effective dose for inducing 50% muscle contraction (ED50) ([2]; endothelium (+) specimens, 8 mg/kg i.p. once daily for four weeks, mean±SD, n=6): 8.102 ± 0.055 ×10^−9
- effective dose for inducing 50% muscle contraction (ED50) ([2]; endothelium (−) specimens, 2 mg/kg i.p. once daily for four weeks, mean±SD, n=6): 8.149 ± 0.030 ×10^−9
- effective dose for inducing 50% muscle contraction (ED50) ([2]; endothelium (−) specimens, 8 mg/kg i.p. once daily for four weeks, mean±SD, n=6): 8.194 ± 0.114 ×10^−9
- overall effect on vascular smooth muscle contraction ([2]; STZ-induced diabetic rats): vascular smooth muscle contraction-inhibiting effect
- effect on ED50 of U-46619 ([2]; all groups): no difference in ED50 among the groups
- effect on Emax increase of U-46619-induced vascular smooth muscle contraction ([2]; both endothelium (+) and (−) specimens, 2 and 8 mg/kg, vs. control group): inhibited the Emax increase in a dose-dependent manner
- maximum muscle contractile force (Emax) ([2]; endothelium (+) specimens, U-46619, 2 mg/kg i.p. once daily for four weeks, mean±SD, n=6): 0.576 ± 0.082 g/mg tissue

Structure (SMILES): NCCCC(=O)O [GABA, γ-aminobutyric acid]
- effect on tracheal contraction induced by electrical stimulation (rat isolated trachea): inhibited

Structure (SMILES): COC(=O)[C@@H](N)CCCNC(=N)N[N+](=O)[O-] [L-NAME, NG-nitro-L-arginine-methylester]
- effect on electrical stimulation-induced contraction ([3]; normal rats and diabetic rats): enhanced the response in normal rats, but not in diabetic rats
- effect on acetylcholine-induced contraction ([3]; tracheal muscles from streptozotocin-induced diabetic rats): not affected

- melting point: 34 to 35 °C
Structure (SMILES): O=C1C=C(CCCCCCCCCCCO)CCC1 [Preparation Example 2, 3-(11-hydroxyundecyl)-2-cyclohexen-1-one]

- melting point: 35 to 36 °C
Structure (SMILES): O=C1C=C(CCCCCCCCCCCCO)CCC1 [Preparation Example 3, 3-(12-hydroxydodecyl)-2-cyclohexen-1-one]

- melting point: 42 to 43 °C
Structure (SMILES): O=C1C=C(CCCCCCCCCCCCCO)CCC1 [Preparation Example 4, 3-(13-hydroxytridecyl)-2-cyclohexen-1-one]

- melting point: 44 to 45 °C
Structure (SMILES): O=C1C=C(CCCCCCCCCCCCCCO)CCC1 [Preparation Example 5, 3-(14-hydroxytetradecyl)-2-cyclohexen-1-one]

Structure (SMILES): Nc1cc(-c2ccncc2)c[nH]c1=O [aminone]
- relaxation of specimens contracted with carbachol [4]: concentration-dependent relaxation
- response of diabetic rat specimens compared with control animals [4]: higher response

Structure (SMILES): COc1ccc(C2CNC(=O)C2)cc1OC1CCCC1 (centres unmarked) [rolipram]
- relaxation of specimens contracted with carbachol [4]: concentration-dependent relaxation
- concentration at which the effect was observed ([4]; control animal specimens): observed at the lowest concentration
- response of diabetic rat specimens compared with control animals [4]: no significant difference

Structure (SMILES): Cn1c(=O)c2[nH]cnc2n(C)c1=O [theophylline]
- relaxation of specimens contracted with carbachol [4]: concentration-dependent relaxation
- response of diabetic rat specimens compared with control animals [4]: no significant difference
